Laboratory results reported in US20240188566A1, “Biocidal Composition and Method” (ARXADA, LLC, priority 2021, published 2024).

Experiments:
[1] = system: Pseudomonas aeruginosa, Escherichia coli, Enterobacter cloacae, Acinetobacter calcoaceticus; assay: In-can challenge test, modified ASTM D2574-97 (Table 1); format: cell-based
Experimental: (§1) Various formulations were made in accordance with the present disclosure and tested for performance. In one challenge test, the efficacy of dicyandiamide as an adjuvant for BIT was evaluated using modified ASTM D2574-97 “Standard Test Method for Resistance of Emulsion Paints in the Container to Attack by Microorganisms” with higher inoculation volumes and frequency. A standard consortium of four (4) bacterial populations: Pseudomonas aeruginosa, Escherichia coli, Enterobacter cloacae, Acinetobacter calcoaceticus was used to inoculate three (3) different samples at ten percent (10%), five percent (5%), or two and a half percent (2.5%) of the sample size. At twenty-four (24) hours and seventy-two (72) hours after each inoculation, a portion of each sample was streaked on tryptic soy agar. A dilution plate count was performed at the last seventy-two (72) hour time point.
(§2) Example data provided in Tables 1, 2 and 3 should be understood as indicating the degree of microbial growth observed for a given data point unless otherwise indicated. In particular, each plate is ranked from 0 through 5c (i.e., one of 0, 1, 2, 3, 4, 5, or 5c) according to the degree of observed microbial growth, where: a “0” ranking indicates no growth; a “1” ranking indicates one (1) through five (5) observed colony forming unit (cfu), i.e., the plate was very lightly contaminated; a “2” ranking indicates six (6) through fifteen (15) cfu, i.e., the plate was lightly contaminated; a “3” ranking indicates sixteen (16) through thirty (30) cfu, i.e., the plate was moderately contaminated; a “4” ranking indicates thirty-one (31) through forty-five (45) cfu, i.e., the plate was heavily contaminated; a “5” ranking indicates greater than (45) cfu, i.e., the plate was severely contaminated; and a “5c” ranking indicates confluent growth, i.e., the plate was very severely contaminated. Thus, for instance, Table 1, Challenge 1 at 24 h for BIT 50 ppm has a value of 5 indicating greater than forty-five (45) cfu were observed. As another example for illustration, Table 1, Challenge 1 at 24 h for dicyandiamide 5,000 ppm+BIT 50 ppm has a value of 1 indicating one (1) through five (5) cfu was observed.

[2] = system: Pseudomonas aeruginosa, Escherichia coli, Enterobacter cloacae, Acinetobacter calcoaceticus; assay: Repeat in-can challenge test, same conditions (Table 2); format: cell-based
Experimental: as §1, §2

[3] = system: bacteria, fungi, and yeast; details: background statement; cited from earlier work
[4] = neutral pH; cited from earlier work
[5] = BIT 50 ppm, Challenge 1 (10%), 24 h
[6] = BIT 50 ppm, Challenge 1 (10%), 72 h
[7] = BIT 50 ppm, Challenge 2 (5%), 72 h
[8] = BIT 50 ppm, Challenge 3 (2.5%), 24 h
[9] = BIT 50 ppm, Challenge 3 (2.5%), 72 h
[10] = BIT 100 ppm, Challenge 1 (10%), 24 h
[11] = BIT 100 ppm, Challenge 1 (10%), 72 h
[12] = BIT 100 ppm, Challenge 2 (5%), 72 h
[13] = BIT 100 ppm, Challenge 3 (2.5%), 24 h
[14] = BIT 100 ppm, Challenge 3 (2.5%), 72 h

O=c1[nH]sc2ccccc12 [BIT, 1,2-benzisothiazolin-3-one]
degree of microbial growth (plate ranking) [1, 5]: 5 (a “5” ranking indicates greater than (45) cfu, i.e., the plate was severely contaminated)
degree of microbial growth (plate ranking) [1, 6]: 2 (a “2” ranking indicates six (6) through fifteen (15) cfu, i.e., the plate was lightly contaminated)
degree of microbial growth (plate ranking) [1, 7]: 5 (a “5” ranking indicates greater than (45) cfu, i.e., the plate was severely contaminated)
degree of microbial growth (plate ranking) [1, 8]: 5c
dilution plate count [1, 9]: 7.8 × 10^6
degree of microbial growth (plate ranking) [1, 10]: 5 (a “5” ranking indicates greater than (45) cfu, i.e., the plate was severely contaminated)
degree of microbial growth (plate ranking) [1, 11]: 0
degree of microbial growth (plate ranking) [1, 12]: 0
degree of microbial growth (plate ranking) [1, 13]: 5 (a “5” ranking indicates greater than (45) cfu, i.e., the plate was severely contaminated)
dilution plate count [1, 14]: 5.0 × 10^1
degree of microbial growth (plate ranking) ([2]; BIT 35 ppm, Challenge 1 (10%), 24 h): 5c
degree of microbial growth (plate ranking) ([2]; BIT 35 ppm, Challenge 1 (10%), 72 h): 5c
degree of microbial growth (plate ranking) ([2]; BIT 35 ppm, Challenge 2 (5%), 72 h): 5c
degree of microbial growth (plate ranking) ([2]; BIT 35 ppm, Challenge 3 (2.5%), 24 h): 5c
dilution plate count ([2]; BIT 35 ppm, Challenge 3 (2.5%), 72 h): 3.0 × 10^6
degree of microbial growth (plate ranking) [2, 5]: 5c
degree of microbial growth (plate ranking) [2, 6]: 5c
degree of microbial growth (plate ranking) [2, 7]: 5c
degree of microbial growth (plate ranking) [2, 8]: 5c
dilution plate count [2, 9]: 6.6 × 10^6
degree of microbial growth (plate ranking) ([2]; BIT 65 ppm, Challenge 1 (10%), 24 h): 5c
degree of microbial growth (plate ranking) ([2]; BIT 65 ppm, Challenge 1 (10%), 72 h): 3 (a “3” ranking indicates sixteen (16) through thirty (30) cfu, i.e., the plate was moderately contaminated)
degree of microbial growth (plate ranking) ([2]; BIT 65 ppm, Challenge 2 (5%), 72 h): 5c
degree of microbial growth (plate ranking) ([2]; BIT 65 ppm, Challenge 3 (2.5%), 24 h): 5c
dilution plate count ([2]; BIT 65 ppm, Challenge 3 (2.5%), 72 h): 1.0 × 10^6
degree of microbial growth (plate ranking) ([2]; BIT 75 ppm, Challenge 1 (10%), 24 h): 5c
degree of microbial growth (plate ranking) ([2]; BIT 75 ppm, Challenge 1 (10%), 72 h): 0
degree of microbial growth (plate ranking) ([2]; BIT 75 ppm, Challenge 2 (5%), 72 h): 5 (a “5” ranking indicates greater than (45) cfu, i.e., the plate was severely contaminated)
degree of microbial growth (plate ranking) ([2]; BIT 75 ppm, Challenge 3 (2.5%), 24 h): 5c
dilution plate count ([2]; BIT 75 ppm, Challenge 3 (2.5%), 72 h): 2.8 × 10^5
degree of microbial growth (plate ranking) [2, 10]: 5c
degree of microbial growth (plate ranking) [2, 11]: 0
degree of microbial growth (plate ranking) [2, 12]: 5 (a “5” ranking indicates greater than (45) cfu, i.e., the plate was severely contaminated)
degree of microbial growth (plate ranking) [2, 13]: 5c
dilution plate count [2, 14]: 1.8 × 10^7
amount required for a reliable and quick biocidal activity [3]: ≤ 500 ppm

Zinc pyrithione [ZPT]
solubility in water [4]: 8 ppm
